The source of these data is ChEMBL document CHEMBL1158207, “Mauritiamine, a New Antifouling Oroidin Dimer from the Marine Sponge Agelas mauritiana” (1996).

Activity calls are given as the source filed them. The rule behind the calls is not given here.

For assay [1], the system named is Ciona savignyi. The assay can be described thus: Promotion of metamorphosis in ascidian Ciona savignyi larvae at 2.5 ug/ml after 10 hrs. The format is functional, organism-based.
Assay [2] has as its system Microbacterium maritypicum. The assay can be described thus: Antimicrobial activity against Flavobacterium marinotypicum ATCC 19260 at 10 ug/disk after 24 hrs by paper disk method. The conditions noted are these: ATCC 19260, 24 h, read-out: IZ. The format is functional.

On to `NC(=O)c1cc(Br)c(Br)[nH]1`, for which the result in assay [1] was Active.
In the case of `NC1=NC(=O)C(/C=C/CNC(=O)c2cc(Br)c(Br)[nH]2)(c2nc(N)[nH]c2/C=C/CNC(=O)c2cc(Br)c(Br)[nH]2)N1` (stereo not drawn) [MAURITIAMINE], the zone of inhibition at 10 µg/disc in assay [2] came to 10 mm.
Regarding `Nc1ncc(/C=C/CNC(=O)c2cc(Br)c(Br)[nH]2)[nH]1` [OROIDIN], in assay [2], the zone of inhibition at 10 µg/disc worked out at 15 mm.
